Measured values reported in US12325744B2, “Methods for reducing post-operative cognitive dysfunction (POCD)” (The Kennedy Trust for Rheumatology Research, priority 2010, dated 2025).
“Also recorded” adds a separate entry of the source.

Key:
microglia [1] = experiment: Hippocampal microglia anti-CD11b immunohistochemistry grading (0-3) after tibial surgery; type: in vivo; conditions: wild type mice, 1 day after surgery
Excerpt: Immunohistochemistry. Fixed brains were collected for immunohistochemical DAB staining for CD11 b and scored as previously described^21. (For further details please refer to supplemental methods).
Under terminal anesthesia with pentobarbital, mice were euthanized and perfused transcardially with ice-cold heparinized 0.1M phosphate buffer solution (PBS) followed by 4% paraformaldehyde in 0.1M PBS at pH 7.4 (VWR International, Lutterworth, Leicester, UK). The brains were harvested and post-fixed in 4% paraformaldehyde in 0.1M PBS at 4° C. and cryoprotected in 0.1M PBS solutions containing 15% sucrose for 24 hours (VWR International, Lutterworth, Leicester, UK) and then 30% sucrose for a further 48 hours. […]
Immunohistochemistry: Fixed brains were collected for immunohistochemical DAB staining for microglia activation using CD11 b and scored as previously described (13).
Methods: Adult C56BL/6J male mice were randomly assigned into groups that were: 1) untreated (naïve) animals; 2) tibial fracture under GA and analgesia; 3) 24 h following tibial surgery, i.p. injection of LPS (1 mg/kg) 4) LPS injection only. Separate cohorts of mice per group were assessed for inflammatory markers (plasma cytokines and microglial activation), or hippocampal-dependent memory using trace fear conditioning (TFC).

HMGB-1 = experiment: Plasma HMGB-1 by ELISA after LPS injection; type: in vivo, mice; conditions: LPS 1 mg/kg i.p.; IL-1Ra 100 mg/kg s.c. immediately before LPS
Experimental: (§1) Treatment. LPS derived from Escherichia Coli endotoxin ([…], InvivoGen, USA, 1 mg/kg) was dissolved in normal saline and injected intraperitoneally. IL-1Ra (Amgen, Anakinra 100 mg/kg, Nederlands) was given subcutaneously immediately before LPS administration. Dose response curve from LPS or IL-1Ra was obtained from our pilot studies to provoke or to suppress moderate degree of microglia activation respectively. Control animals were injected with equivalent volumes (0.1 ml) of saline. Mice from each treatment group were randomly assigned for assessment of either cytokine response or cognitive behavior, in order to obviate possible confounding effects of behavioral testing on inflammatory markers.
Plasma cytokine measurement. Blood was sampled transcardially after thoracotomy under terminal anesthesia 30 minutes, 2, 6, 12 hours and 1, 3, 7 days after experiments in the different cohorts and centrifuged at 3,600 rpm for 7 minutes at 4° C. Blood samples taken from animals without any interventions severed as controls. Plasma samples were stored at −20° C. for further analysis. Plasma cytokine and HMGB-1 were measured using commercially available ELISA kits from Biosource, CA and Shino-test Corporation, Japan, respectively. The sensitivities of the assays were <3 pg/ml for TNFα, <7 pg/ml for IL-1β, <3 pg/ml for IL-6 and 1 ng/ml for HMGB-1.

microglia [2] = experiment: Hippocampal microglia anti-CD11b immunohistochemistry grading after LPS injection; type: in vivo, mice; conditions: LPS 1 mg/kg i.p.; IL-1Ra pre-treatment; days 1 and 3
Experimental: as §1
Immunohistochemistry (IHC). Mice were euthanized and perfused transcardially with ice-cold heparinized 0.1M phosphate buffer solution (PBS) followed by 4% paraformaldehyde in 0.1M PBS at pH 7.4 (VWR International, UK). The brains were harvested and post-fixed in 4% paraformaldehyde in 0.1M PBS at 4° C. and cryoprotected in 0.1M PBS solutions containing 15% sucrose for 24 hours (VWR International, UK) and then 30% sucrose for a further 48 hours. Brain tissue was freeze-mounted in OCT embedding medium (VWR International, UK). The 25 μm thick coronal sections of the hippocampus were cut sequentially in groups of 6 and mounted on Superfrost® plus slides (Menzel-Glaser, Germany). […]

C57BL/6 male mice = experiment: Trace fear conditioning, contextual fear response after LPS injection; type: in vivo; conditions: LPS within 30 min after training, tested day 3, IL-1Ra pre-treatment
Experimental: as §1
Behavioral measurement (conditioning). The behavioral study was conducted using a dedicated conditioning chamber (Med Associates Inc., USA). Mice were trained and tested on separate days. LPS was injected within 30 minutes following training. […] Three days after training, mice were returned to the same chamber in which training occurred (context), and freezing behavior was recorded. […] Approximately 3 h later, freezing was recorded in a novel environment and in response to the cue (tone). The auditory cue was then presented for 3 min, and freezing scored again. Freezing scores for each subject were expressed as a percentage for each portion of the test. […]

With “IL-1Ra: IL-1 receptor antagonist (Amgen, Anakinra)” as the substance, how does the “Reactive microgliosis in hippocampus (CD11b grading) after surgery, effect of treatment” value (microglia [1]) read?
Its value is “surgery did not increase hippocampal microgliosis; also recorded: surgery did not activate microglia if IL-1Ra was given pre-operatively”.

And the “Plasma HMGB-1 after LPS, effect of IL-1Ra” value (HMGB-1)?
Its value is “had no effects on HMGB-1 release in plasma; also recorded: had no effects on HMGB-1 levels”.

And the “Reactive microglia in hippocampus after LPS, effect of IL-1Ra” value (microglia [2])?
Its value is “Reduction in the number of reactive microglia was observed; also recorded: attenuated by IL-1Ra treatment; also recorded: effectively reduced the number of reactive microglia at days 1 and 3”.

What about the “Contextual fear response (freezing) after LPS, effect of IL-1Ra” value (C57BL/6 male mice) of the same substance?
Its value is “significantly ameliorated the memory retention at day 3; also recorded: significantly ameliorated this cognitive dysfunction”.
